We go through one compound from PMC11852804, “Conformational flexibility is a critical factor in designing broad-spectrum human norovirus protease inhibitors” (Journal of Virology, 2025).

Where two headings read alike, the source gives them in different places.

The test system of experiment [1] is GII.4-Pro HOV. The source says:
FRET protease assay, time-dependent inhibition on GII.4-Pro HOV

The target in experiment [2] is T1, GII.4-Pro Sydney (Norovirus Hu/GII.4/Sydney/NSW0514/2012/AU, UniProt K4L8Z7).
T1 construct: mature protease cut from ORF1 polyprotein; tag cut with 3C protease when used
Nature of the experiment: FRET protease assay, time-dependent inhibition. Format: biochemical.

The target of experiment [3] is T2, GI.1-Pro (Norovirus Hu/1968/US, UniProt Q83883).
T2 construct: gene ORF1; mature protease cut from ORF1 polyprotein; pET-46b(+) His-tag with thrombin site, E. coli XJb(DE3); tag cut with thrombin when used
In words: FRET protease assay, time-dependent inhibition. Type of experiment: biochemical. The text has this:
FRET protease assay, time-dependent inhibition on GI.1-Pro

Experiment [4] has as its target T3, GII.4-Pro Sydney (Norovirus Hu/GII.4/Sydney/NSW0514/2012/AU, UniProt K4L8Z7, R1120A). Conditions: read-out: KI. The text has this: (§1) FRET protease assay, time-dependent inhibition on GII.4-Pro Sydney
Experiment [5] has as its target T3, GII.4-Pro Sydney. Nature of the experiment: biochemical. To be noted: read-out: kinact/KI (M^-1s^-1).
Text: as §1

The target of experiment [6] is T4, GI.1-Pro (Norovirus Hu/1968/US, UniProt Q83883, R1212A).
T4 construct: gene ORF1
Type of experiment: biochemical. To be noted: covalent; tight-binding conditions, kchem approximation; GI.1 FRET peptide substrate; pH 8.0, 37 °C, 10 mM DTT; corrected for substrate competition.

The target in experiment [7] is T1, GII.4-Pro Sydney. In words: FRET protease assay, time-dependent inhibition. Format: biochemical. Conditions: covalent; GII FRET peptide substrate; pH 8.0, 37 °C, 10 mM DTT; corrected for substrate competition.
The subject of experiment [8] is T5, GII.4-Pro HOV.
T5 construct: mature protease cut from ORF1 polyprotein; pET-46b(+) His-tag with thrombin site, E. coli XJb(DE3); tag cut with thrombin when used
Nature of the experiment: FRET protease assay, time-dependent inhibition. Type of experiment: biochemical, Norovirus norwalkense. Conditions: covalent; GII FRET peptide substrate; pH 8.0, 37 °C, 10 mM DTT; corrected for substrate competition.

In experiment [9] the target is T6, (Norovirus norwalkense, UniProt A9YYE3).
T6 construct: mature protease cut from ORF1 polyprotein; pET-46b(+) His-tag with thrombin site, E. coli XJb(DE3); tag cut with thrombin when used
Nature of the experiment: FRET protease assay, time-dependent inhibition. Format: biochemical.

The target in experiment [10] is GII.3-Pro (Norovirus Hu/Texas/TCH04-577/2004/US, UniProt B2DD26, R1120A). To be noted: read-out: KI.
In experiment [11] the target is T7, GII.3-Pro (Norovirus Hu/Texas/TCH04-577/2004/US, UniProt B2DD26).
T7 construct: mature protease cut from ORF1 polyprotein; tag cut with 3C protease when used
Nature of the experiment: FRET protease assay, time-dependent inhibition. Type of experiment: biochemical.

In experiment [12] the target is T7, GII.3-Pro. Nature of the experiment: FRET protease assay, time-dependent inhibition. Conditions: covalent; GII FRET peptide substrate; pH 8.0, 37 °C, 10 mM DTT; corrected for substrate competition. Format: biochemical.

As to `CCOC(=O)/C=C/[C@H](C[C@@H]1CCNC1=O)NC(=O)[C@@H](CC(=O)[C@@H](NC(=O)c1cc(C)on1)C(C)C)Cc1ccc(F)cc1` [rupintrivir], the “kinact/KI” value worked out at 6.52 ± 0.77 M⁻¹ s⁻¹ in the experiment with GII.4-Pro HOV [1]; 3.73 ± 0.28 M⁻¹ s⁻¹ at GII.4-Pro Sydney [2]; 294 ± 5.7 M⁻¹ s⁻¹ at GI.1-Pro [3]; 4.53 ± 0.59 M⁻¹ s⁻¹ at GII.4-Pro Sydney [5]; 233.5 ± 8.8 M⁻¹ s⁻¹ on GI.1-Pro [6]; 5.78 ± 0.21 M⁻¹ s⁻¹ in [9]. In addition, the kinact/KI on GII.3-Pro [11] was determined as 5.34 ± 0.52 M⁻¹ s⁻¹. The KI (inactivation) in the experiment with GII.4-Pro HOV [1] (read-out: KI) came out at 564 ± 513 µM; on GII.4-Pro Sydney [4] it was 438 ± 299 µM; at GII.4-Pro Sydney [7], 1090 µM; with GII.4-Pro HOV [8], 457 ± 52 µM; on GII.3-Pro [10] it was 94 ± 38 µM; on GII.3-Pro [12], 1310 µM.
